Tested on: houseflies
Experiment: Knockdown test on houseflies, oil solution sprayed in a 70 cm cubic chamber
Format: in vivo
Settings: 0.00625% (w/v) oil solution, 0.7 ml sprayed in cubic chamber of 70 cm side length, ten houseflies (5 of each male and female), repeated twice
Protocol: Each of the present invention compounds (1) and (2) (0.00625 parts) produced in the aforementioned Production
Examples was dissolved in 10 parts of dichloromethane and the resulting solution was mixed with 89.99375 parts of an isoparafin solvent (Isper M, registered trademark of Exxon Chemical Company) to prepare a 0.00625% (w/v) oil solution.
Ten houseflies (5 of each male and female) were released in a cubic chamber having a side length of 70 cm and then 0.7 ml of the present invention compound (1) was sprayed through a small window at an inlet of the chamber using a spray gun (spray pressure: 0.9 kg/cm^2). The number of knockdowned houseflies was counted after a given time had passed since completion of spraying, and a knockdown rate (KD rate) was determined (repeated twice). The test was carried out in the same manner, except that the present invention compound (2) was used in place of the present invention compound (1), and then a knockdown rate was determined after a given time (repeated twice).

Compound	Knockdown rate (%) after 7 minutes [%]
C/C=C/C(C#N)=C/[C@@H]1[C@@H](C(=O)OCc2c(F)c(F)c(COC)c(F)c2F)C1(C)C [Present invention compound (2), 4-methoxymethyl-2,3,5,6-tetrafluorobenzyl=(1R)-trans-3-[(1Z,3E)-2-cyano-1,3-pentadienyl]-2,2-dimethylcyclopropane carboxylate]	100
C=C/C(C#N)=C/[C@@H]1[C@@H](C(=O)OCc2c(F)c(F)c(COC)c(F)c2F)C1(C)C [Present invention Compound (1), 4-methoxymethyl-2,3,5,6-tetrafluorobenzyl=(1R)-trans-3-[(1Z)-2-cyano-1,3-butadienyl]-2,2-dimethylcyclopropane carboxylate]	100

From patent US8575213B2, “Pyrethrinoid-type esters as pesticides” (Sumitomo Chemical Company, Limited, priority 2010, dated 2013)
